According to ChEMBL document CHEMBL1146522, “Two new xanthone derivatives from the algicolous marine fungus Wardomyces anomalus” (2003):
The source made the active and inactive calls. The calls are words filed in the database; no cut-off is given here.

How the values were obtained:
[1] = system: Radical scavenging activity; test: Antioxidant activity assessed as DPPH radical scavenging activity at 500 ug/mL; format: functional
Priestia megaterium = test: Antibacterial activity against Bacillus megaterium 50 ug/disk by agar diffusion method; format: functional
[2] = Antioxidant activity assessed as inhibition of peroxidation of linolenic acid at 7.4 ug/mL by TBARS assay; format: functional
[3] = molecular target: Tyrosine-protein kinase Lck (Homo sapiens) (UniProt P06239); test: Inhibition of p56-LCK assessed as residual enzyme activity at 200 ug/mL
[4] = system: Radical scavenging activity; test: Antioxidant activity assessed as DPPH radical scavenging activity at 50 ug/mL; format: functional
Microbotryum violaceum = test: Antifungal activity against Microbotryum violaceum 50 ug/disk by agar diffusion method; format: functional
[Chlorella] fusca = Antimicrobial activity against Chlorella fusca 50 ug/disk by agar diffusion method; format: functional, organism-based; conditions: Scenedesmus fuscus
Escherichia coli = test: Antibacterial activity against Escherichia coli 50 ug/disk by agar diffusion method; format: functional, organism-based
[5] = Antioxidant activity assessed as inhibition of peroxidation of linolenic acid at 37 ug/mL by TBARS assay; format: functional
[6] = system: Radical scavenging activity; test: Antioxidant activity assessed as DPPH radical scavenging activity at 25 ug/mL; format: functional
[7] = molecular target: Human immunodeficiency virus type 1 reverse transcriptase (Human immunodeficiency virus 1) (UniProt Q72547); test: Inhibition of HIV1 reverse transcriptase assessed as residual enzyme activity at 66 ug/mL
[8] = system: Radical scavenging activity; test: Antioxidant activity assessed as DPPH radical scavenging activity at 100 ug/mL; format: functional
[9] = system: Aspergillus pseudoglaucus; test: Antifungal activity against Eurotium repens 50 ug/disk by agar diffusion method; format: functional
Mycotypha microspora = test: Antifungal activity against Mycotypha microspora 50 ug/disk by agar diffusion method; format: functional, organism-based

Tyrosine-protein kinase Lck (Homo sapiens), sequence (P06239 2-509 limits assumed): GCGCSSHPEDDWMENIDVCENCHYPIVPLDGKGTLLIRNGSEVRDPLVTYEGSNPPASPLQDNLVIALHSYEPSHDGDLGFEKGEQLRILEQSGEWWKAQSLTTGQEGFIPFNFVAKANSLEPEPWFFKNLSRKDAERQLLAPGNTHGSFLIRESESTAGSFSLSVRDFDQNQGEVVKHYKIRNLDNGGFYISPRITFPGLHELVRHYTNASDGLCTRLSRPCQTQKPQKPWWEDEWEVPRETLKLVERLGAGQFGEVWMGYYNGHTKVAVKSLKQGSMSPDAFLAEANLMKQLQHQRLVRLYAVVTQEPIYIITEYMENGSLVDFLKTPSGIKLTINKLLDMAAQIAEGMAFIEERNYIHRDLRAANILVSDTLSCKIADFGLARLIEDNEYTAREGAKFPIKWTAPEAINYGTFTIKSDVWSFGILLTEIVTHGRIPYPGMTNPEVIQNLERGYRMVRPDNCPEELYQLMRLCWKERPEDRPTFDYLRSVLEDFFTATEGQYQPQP

Row | Activity [3] | Activity [7] | Compound | Activity [1] | Activity (Priestia megaterium) | inhibition [2] | Activity [4] | inhibition zone (IZ) (Microbotryum violaceum) | Activity ([Chlorella] fusca) | Activity (Escherichia coli) | inhibition [5] | Activity [6] | Activity [8] | Activity [9] | Activity (Microbotryum violaceum) | Activity (Mycotypha microspora) | inhibition zone (IZ) (Priestia megaterium) | inhibition zone (IZ) [9]
1 | 0% | 82.2% | Cc1c(O)c(O)cc2oc3cc(O)cc(O)c3c(=O)c12 [ANOMALIN A] | 95.4% | inactive | 17% | 94.8% | 1 mm | inactive | inactive | 37% | 94.7% | 95.2% |  |  |  |  | 
2 |  |  | Cc1cc(C(C)(C)C)c(O)c(C(C)(C)C)c1 | 87.8% |  | 42.8% | 83.1% |  |  |  | 48.5% | 73.4% | 89.1% |  |  |  |  | 
3 | 0% | 98.3% | O=C(O)c1ccc(CO)o1 | 97% | inactive | 2.6% | 53.4% |  | inactive | inactive | 7.4% | 30.7% | 87.7% | inactive | inactive | inactive |  | 
4 | 0% | 82.9% | Cc1cc(O)cc2oc3cc(O)cc(O)c3c(=O)c12 [NORLICHEXANTHONE] | 90.6% |  | -7.4% | 12.9% |  | inactive |  |  | 6.2% | 25.3% |  |  |  | 1 mm | 1 mm
